These results are taken from patent US20120190579A1, “Functionalisation of Solid Substrates” (priority 2009, published 2012).

Data set [1] deals with T1, human somatostatin receptor 2 (Homo sapiens, UniProt P30874).
T1 construct: host or cells: HEK293 cells stably expressing Kir3.1 and Kir3.2A
The experiment in a line: Whole cell patch-clamp current recordings of bridged somatostatin analogues. The conditions noted are these: Pertussis toxin 100 ng/ml overnight; Tertiapin 100 nM. The class given is cell-based.
Protocol: HEK 293 cells expressing HKIR3.1/3.2 channel and human somatostatin receptor 2 were treated with these compounds, and whole cell patch-clamp current recordings taken.
HEK293 cells (human embryonic kidney cell line) stably expressing Kir3.1 and Kir3.2A channels were maintained in minimum essential medium supplemented with 10% foetal calf serum and 727 μg of G418 (Invitrogen), at 37° C. in humidified atmosphere (95% O2, 5% CO2). Cells were transiently transfected with SSTR2DNA (Missouri S&T cDNA Resource Center) along with pEGFP-N1 (Clontech) for visualization of transfected cells using epifluorescence. […]
Somatostatin and its analogues were dialysed for 24 h at 4° C. in buffer (50 mM sodium phosphate, pH 6.2) to remove the organic solvents. After dialysis the concentration was determined and the peptides stored at 4° C. […]
Whole cell patch-clamp current recordings were performed with an Axopatch 200B amplifier (Axon Instruments) using fire-polished pipettes with a resistance of 3-4 MΩ pulled from filamented borosilicated glass capillaries (Harvard Apparatus, 1.5 mm OD×1.17 mm ID). Data was acquired and analysed via a Digidata 1322A interface (Axon Instruments) and pCLAMP software (version 8.1, Axon Instruments). […] For each cell it was assessed if flow artifacts resulting from the pressure of drug application were present. […]

Data set [2] deals with neutravidin-coated agarose beads (Gallus gallus, UniProt P02701). The experiment in a line: Pull-down and release of biotinylated protein adduct on neutravidin coated agarose beads. The conditions noted are these: release with β-mercaptoethanol (25 mM) 2 h at 37° C.; densitometry vs protein series dilution. The protocol: Protein/biotin-PEG-bromomaleimide adduct (200 μL) and unmodified model protein (200 μL) were washed independently with PBS buffer (3×500 μL) in a concentrator (Vivaspin, cut off 10 k) yielding protein solutions (300 μL) (In). For each of the protein solutions obtained, neutravidin-coated agarose beads (750 μL of 50% aqueous slurry) were washed with PBS (2×500 μL). Protein solution (300 μL) was then added to the beads and the mixture incubated at 4° C. for 30 mins. The mixture was centrifuged and the flow through (FT) collected. The beads were washed with PBS (2×500 μL) and both wash fractions collected (W1 and W2). Protein was released from the beads by incubation in PBS (300 μL) containing β-mercaptoethanol (25 mM) for 2 h at 37° C. The sample was centrifuged and the eluant (El) containing cleaved GrB2-SH2 domain L111C collected.
The amount of protein recovered was determined as 44% by comparison with a protein series dilution via densitometry. However, correcting for irreversibly physisorbed protein (determined using the unmodified protein control) the corrected recovery was 71%.

T1 sequence (P30874 whole entry): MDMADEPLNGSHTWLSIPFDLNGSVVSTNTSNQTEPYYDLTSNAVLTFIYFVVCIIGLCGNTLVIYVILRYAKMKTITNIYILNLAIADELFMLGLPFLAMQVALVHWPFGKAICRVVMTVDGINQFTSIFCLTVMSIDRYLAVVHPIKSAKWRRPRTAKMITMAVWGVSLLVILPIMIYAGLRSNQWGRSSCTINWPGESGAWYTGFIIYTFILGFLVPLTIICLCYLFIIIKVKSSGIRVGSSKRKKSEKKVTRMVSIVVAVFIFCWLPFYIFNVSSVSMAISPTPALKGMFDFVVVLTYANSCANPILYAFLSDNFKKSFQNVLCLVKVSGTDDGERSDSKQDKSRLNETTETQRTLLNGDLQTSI

The molecule `O=C1CC2(SCCS2)C(=O)N1` registered a melting point of 112 to 115 °C. As to `CN1C(=O)C=C(Br)C1=O`, the melting point lay in the range of 77 to 79 °C. Turning to `COC(=O)[C@H](CSC1=CC(=O)NC1=O)NC(=O)OC(C)(C)C`, the melting point was 145 to 147 °C. The molecule `O=C1NC(=O)C(Sc2ccccn2)=C1Sc1ccccn1` came in with a melting point of 70 to 72 °C. Take Tertiapin Q: in data set [1], the “GIRK currents after treatment of cells with inhibitor (control)” value was “currents were largely inhibited”. As for “GrB2-SH2 Domain L111C/Biotin-PEG-bromomaleimide Adduct”, the “amount of protein recovered” value in data set [2] is listed as 44%. In the case of Pertussis toxin, the “GIRK currents after treatment of cells with inhibitor (control)” value in data set [1] is recorded as “currents were largely inhibited”.

As to `O=C1NC(=O)C(I)=C1I`, the melting point fell in the range of 238 to 241 °C. Turning to `CC(C)(C)OC(=O)NCCOCCOCCNC(=O)CCCC[C@@H]1SC[C@@H]2NC(=O)N[C@@H]21` (stereo in doubt), the melting point lay within 106 to 108 °C.

In the case of `COC(=O)[C@H](CSC1=CC(=O)N(C)C1=O)NC(=O)OC(C)(C)C`, the melting point is 101 to 103 °C. On the same count and under the same terms, with `O=C(CCCC[C@@H]1SC[C@@H]2NC(=O)N[C@@H]21)NCCOCCOCCN1C(=O)C=C(Br)C1=O` (stereo in doubt) the figure was 95 to 98 °C; with `CCCCCCSC1=CC(=O)NC1=O`, 99 to 101 °C; with `O=C1NC(=O)C(SCCO)=C1SCCO`, 46 to 50 °C.

In the case of `O=C1C=C(Br)C(=O)N1`, the melting point lay in the range of 148 to 151 °C. The same measure, in the same setting: with `O=C1NC(=O)C23NCC[C@H]2C[C@H]13` (some centres unmarked) the figure was 110 to 113 °C. Molecule `O=C(CCCC[C@@H]1SC[C@@H]2NC(=O)N[C@@H]21)NCCOCCOCCN1C(=O)C(Br)=C(Br)C1=O` (stereo in doubt) had a melting point of 100 to 102 °C. On the same count and under the same terms, with `C=CCCNC1=CC(=O)NC1=O` the figure was 68 to 76 °C.
